SMILES strings stand for the structures.

Sequence of FGFR4 (human) (P22455 whole entry, looked up): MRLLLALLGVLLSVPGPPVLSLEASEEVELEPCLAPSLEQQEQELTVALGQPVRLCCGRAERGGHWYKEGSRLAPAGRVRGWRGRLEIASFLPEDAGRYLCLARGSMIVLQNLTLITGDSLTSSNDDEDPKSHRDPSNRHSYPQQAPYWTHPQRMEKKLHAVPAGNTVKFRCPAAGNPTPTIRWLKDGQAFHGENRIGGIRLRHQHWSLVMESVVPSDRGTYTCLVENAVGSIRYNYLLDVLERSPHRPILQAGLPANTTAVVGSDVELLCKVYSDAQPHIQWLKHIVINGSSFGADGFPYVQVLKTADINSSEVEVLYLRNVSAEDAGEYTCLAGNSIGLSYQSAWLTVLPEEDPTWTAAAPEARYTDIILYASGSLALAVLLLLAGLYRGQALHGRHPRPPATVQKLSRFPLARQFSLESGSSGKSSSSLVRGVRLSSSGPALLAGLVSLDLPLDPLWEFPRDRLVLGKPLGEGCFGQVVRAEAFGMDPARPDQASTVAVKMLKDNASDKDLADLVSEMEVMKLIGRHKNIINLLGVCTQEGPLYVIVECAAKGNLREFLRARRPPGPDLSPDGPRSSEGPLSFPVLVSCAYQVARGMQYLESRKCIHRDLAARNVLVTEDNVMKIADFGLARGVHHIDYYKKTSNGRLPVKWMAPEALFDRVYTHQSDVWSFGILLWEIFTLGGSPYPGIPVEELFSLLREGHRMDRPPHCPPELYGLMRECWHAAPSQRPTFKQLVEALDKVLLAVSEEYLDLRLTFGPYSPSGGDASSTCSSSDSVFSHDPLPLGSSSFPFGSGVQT
Sequence of GRK5 (human) (P34947 whole entry, looked up): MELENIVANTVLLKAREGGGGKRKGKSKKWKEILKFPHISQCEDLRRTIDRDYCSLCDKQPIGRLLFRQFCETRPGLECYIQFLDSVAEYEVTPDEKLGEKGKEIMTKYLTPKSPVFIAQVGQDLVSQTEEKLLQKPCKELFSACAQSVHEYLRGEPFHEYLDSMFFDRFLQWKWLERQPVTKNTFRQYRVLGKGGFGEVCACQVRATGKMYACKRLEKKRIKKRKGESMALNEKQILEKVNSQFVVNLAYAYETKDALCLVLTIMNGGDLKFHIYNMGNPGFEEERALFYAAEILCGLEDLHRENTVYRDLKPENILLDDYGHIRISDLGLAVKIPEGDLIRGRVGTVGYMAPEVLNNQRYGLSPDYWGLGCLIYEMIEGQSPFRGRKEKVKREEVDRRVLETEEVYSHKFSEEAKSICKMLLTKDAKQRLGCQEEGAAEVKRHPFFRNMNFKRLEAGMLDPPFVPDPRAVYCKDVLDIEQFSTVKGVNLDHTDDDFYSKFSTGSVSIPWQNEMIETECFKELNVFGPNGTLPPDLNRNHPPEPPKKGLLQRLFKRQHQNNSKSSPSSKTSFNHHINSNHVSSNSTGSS

For one test, the target named is ADRBK2 (human) (UniProt P35626). The test can be described thus: radiometric filter-binding kinase assay, Kinase HotSpot. The conditions noted are these: compound 0.5 µM; ATP 10 µM.
Sequence of ADRBK2 (human) (P35626 whole entry, looked up): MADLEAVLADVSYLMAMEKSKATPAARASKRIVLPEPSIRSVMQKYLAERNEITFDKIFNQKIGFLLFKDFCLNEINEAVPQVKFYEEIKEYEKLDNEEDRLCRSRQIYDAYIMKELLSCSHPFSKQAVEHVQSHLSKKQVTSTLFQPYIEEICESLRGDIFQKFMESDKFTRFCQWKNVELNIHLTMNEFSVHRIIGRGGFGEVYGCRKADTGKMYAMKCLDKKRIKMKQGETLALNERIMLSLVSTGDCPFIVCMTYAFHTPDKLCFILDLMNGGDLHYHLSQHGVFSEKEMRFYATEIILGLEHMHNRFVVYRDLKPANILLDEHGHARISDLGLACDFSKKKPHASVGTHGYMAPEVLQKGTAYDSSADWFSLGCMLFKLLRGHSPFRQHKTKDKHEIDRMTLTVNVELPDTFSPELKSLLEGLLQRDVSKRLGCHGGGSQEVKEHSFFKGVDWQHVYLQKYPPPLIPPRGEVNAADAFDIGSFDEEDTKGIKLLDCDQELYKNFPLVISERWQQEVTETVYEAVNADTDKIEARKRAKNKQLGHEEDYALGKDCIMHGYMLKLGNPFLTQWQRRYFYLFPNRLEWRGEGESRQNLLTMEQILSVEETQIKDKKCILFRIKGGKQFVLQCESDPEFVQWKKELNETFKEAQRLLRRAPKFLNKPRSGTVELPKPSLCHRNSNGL
For orientation: residual activity means the signal under treatment as a percentage of the control signal. As to `Cc1nc2cc3nc(-c4cccs4)cnc3cc2n1C`, the residual activity came to 99.2%.
Consider `O=C1NC(=O)C(c2cn(CCCO)c3ncccc23)=C1c1cnccn1`, for which the residual activity was 99.9%.
On to `COc1cc2ncnc(N3CCN(C(=O)Nc4ccc(Oc5ccccc5)cc4)CC3)c2cc1OC`, for which the residual activity is 106%.

For a further test, the target named is MAP2K1 (human) (UniProt Q02750). The test is described as above. The note with it: compound 0.5 µM; ATP 10 µM.
On to `Cc1nc2cc3nc(-c4cccs4)cnc3cc2n1C`, for which the residual activity was 89.7%.
The same measure, in the same setting: with `O=C1NC(=O)C(c2cn(CCCO)c3ncccc23)=C1c1cnccn1` the figure was 106%; with `COc1cc2ncnc(N3CCN(C(=O)Nc4ccc(Oc5ccccc5)cc4)CC3)c2cc1OC`, 91.2%.

For the next test, the target named is CSF1R (human) (UniProt P07333). The description is as above. The note with it: compound 0.5 µM; ATP 10 µM.
Sequence of CSF1R (human) (P07333 whole entry, looked up): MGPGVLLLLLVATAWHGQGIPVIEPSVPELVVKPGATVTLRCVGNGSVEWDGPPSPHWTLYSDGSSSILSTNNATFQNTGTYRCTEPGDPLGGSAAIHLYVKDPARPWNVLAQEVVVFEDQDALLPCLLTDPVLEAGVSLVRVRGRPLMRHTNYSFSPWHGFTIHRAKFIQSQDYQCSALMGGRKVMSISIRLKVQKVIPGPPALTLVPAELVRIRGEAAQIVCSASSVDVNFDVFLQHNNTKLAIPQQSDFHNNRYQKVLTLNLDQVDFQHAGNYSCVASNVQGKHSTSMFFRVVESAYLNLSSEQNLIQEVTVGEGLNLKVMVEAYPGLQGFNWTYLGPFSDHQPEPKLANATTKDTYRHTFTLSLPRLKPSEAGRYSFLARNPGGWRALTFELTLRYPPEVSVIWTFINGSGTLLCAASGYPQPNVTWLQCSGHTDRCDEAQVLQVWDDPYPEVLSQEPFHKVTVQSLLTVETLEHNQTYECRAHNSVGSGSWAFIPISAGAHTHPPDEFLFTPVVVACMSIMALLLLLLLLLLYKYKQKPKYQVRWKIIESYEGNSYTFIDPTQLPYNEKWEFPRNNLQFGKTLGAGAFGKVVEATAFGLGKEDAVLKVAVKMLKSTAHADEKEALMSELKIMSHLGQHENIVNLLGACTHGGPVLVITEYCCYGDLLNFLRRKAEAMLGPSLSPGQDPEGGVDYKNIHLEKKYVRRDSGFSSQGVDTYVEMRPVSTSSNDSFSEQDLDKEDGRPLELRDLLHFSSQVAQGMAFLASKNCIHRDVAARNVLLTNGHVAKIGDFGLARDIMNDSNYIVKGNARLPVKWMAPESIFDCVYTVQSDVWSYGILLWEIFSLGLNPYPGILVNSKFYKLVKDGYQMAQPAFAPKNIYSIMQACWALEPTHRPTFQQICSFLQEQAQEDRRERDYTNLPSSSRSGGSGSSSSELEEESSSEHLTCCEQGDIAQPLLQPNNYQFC
In the case of `Cc1nc2cc3nc(-c4cccs4)cnc3cc2n1C`, the residual activity was determined as 63.5%.
Still for that read-out and setting: with `O=C1NC(=O)C(c2cn(CCCO)c3ncccc23)=C1c1cnccn1` the figure was 98.4%.
The same measure, in the same setting: with `COc1cc2ncnc(N3CCN(C(=O)Nc4ccc(Oc5ccccc5)cc4)CC3)c2cc1OC` the figure was 67.2%.

The target in a further test is MAPKAPK3 (human) (UniProt Q16644). The description is as above. The note with it: compound 0.5 µM; ATP 10 µM.
`Cc1nc2cc3nc(-c4cccs4)cnc3cc2n1C`: the residual activity came to 102%.
Same read-out and setting: with `O=C1NC(=O)C(c2cn(CCCO)c3ncccc23)=C1c1cnccn1` the figure was 103%; with `COc1cc2ncnc(N3CCN(C(=O)Nc4ccc(Oc5ccccc5)cc4)CC3)c2cc1OC`, 94.6%.

In a further test the target is PTK6 (human) (UniProt Q13882). Described as above. The note with it: compound 0.5 µM; ATP 10 µM.
For the compound `Cc1nc2cc3nc(-c4cccs4)cnc3cc2n1C`, the residual activity was 88.6%.
Still for that read-out and setting: with `O=C1NC(=O)C(c2cn(CCCO)c3ncccc23)=C1c1cnccn1` the figure was 101%; with `COc1cc2ncnc(N3CCN(C(=O)Nc4ccc(Oc5ccccc5)cc4)CC3)c2cc1OC`, 95.2%.

For a further test, the target named is RPS6KB1 (human) (UniProt P23443). Described as above. The note with it: compound 0.5 µM; ATP 10 µM.
Take `Cc1nc2cc3nc(-c4cccs4)cnc3cc2n1C`: the residual activity amounted to 95%.
Consider `O=C1NC(=O)C(c2cn(CCCO)c3ncccc23)=C1c1cnccn1`, for which the residual activity stood at 90.2%.
On the same count and under the same terms, with `COc1cc2ncnc(N3CCN(C(=O)Nc4ccc(Oc5ccccc5)cc4)CC3)c2cc1OC` the figure was 89.4%.

A further test deals with STK10 (human) (UniProt O94804). Described as above. The conditions noted are these: compound 0.5 µM; ATP 10 µM.
As for `Cc1nc2cc3nc(-c4cccs4)cnc3cc2n1C`, the residual activity was determined as 94.7%.
Take `O=C1NC(=O)C(c2cn(CCCO)c3ncccc23)=C1c1cnccn1`: the residual activity came to 104%.
On the same count and under the same terms, with `COc1cc2ncnc(N3CCN(C(=O)Nc4ccc(Oc5ccccc5)cc4)CC3)c2cc1OC` the figure was 97.9%.

The next test has as its target GRK5 (human) (UniProt P34947). The description is as above. The conditions noted are these: compound 0.5 µM; ATP 10 µM.
Turning to `Cc1nc2cc3nc(-c4cccs4)cnc3cc2n1C`, the residual activity amounted to 108%.
Still for that read-out and setting: with `O=C1NC(=O)C(c2cn(CCCO)c3ncccc23)=C1c1cnccn1` the figure was 116%; with `COc1cc2ncnc(N3CCN(C(=O)Nc4ccc(Oc5ccccc5)cc4)CC3)c2cc1OC`, 82.2%.

The next test deals with ROCK1 (human) (UniProt Q13464). The test is described as above. The note with it: compound 0.5 µM; ATP 10 µM.
Sequence of ROCK1 (human) (Q13464 whole entry, looked up): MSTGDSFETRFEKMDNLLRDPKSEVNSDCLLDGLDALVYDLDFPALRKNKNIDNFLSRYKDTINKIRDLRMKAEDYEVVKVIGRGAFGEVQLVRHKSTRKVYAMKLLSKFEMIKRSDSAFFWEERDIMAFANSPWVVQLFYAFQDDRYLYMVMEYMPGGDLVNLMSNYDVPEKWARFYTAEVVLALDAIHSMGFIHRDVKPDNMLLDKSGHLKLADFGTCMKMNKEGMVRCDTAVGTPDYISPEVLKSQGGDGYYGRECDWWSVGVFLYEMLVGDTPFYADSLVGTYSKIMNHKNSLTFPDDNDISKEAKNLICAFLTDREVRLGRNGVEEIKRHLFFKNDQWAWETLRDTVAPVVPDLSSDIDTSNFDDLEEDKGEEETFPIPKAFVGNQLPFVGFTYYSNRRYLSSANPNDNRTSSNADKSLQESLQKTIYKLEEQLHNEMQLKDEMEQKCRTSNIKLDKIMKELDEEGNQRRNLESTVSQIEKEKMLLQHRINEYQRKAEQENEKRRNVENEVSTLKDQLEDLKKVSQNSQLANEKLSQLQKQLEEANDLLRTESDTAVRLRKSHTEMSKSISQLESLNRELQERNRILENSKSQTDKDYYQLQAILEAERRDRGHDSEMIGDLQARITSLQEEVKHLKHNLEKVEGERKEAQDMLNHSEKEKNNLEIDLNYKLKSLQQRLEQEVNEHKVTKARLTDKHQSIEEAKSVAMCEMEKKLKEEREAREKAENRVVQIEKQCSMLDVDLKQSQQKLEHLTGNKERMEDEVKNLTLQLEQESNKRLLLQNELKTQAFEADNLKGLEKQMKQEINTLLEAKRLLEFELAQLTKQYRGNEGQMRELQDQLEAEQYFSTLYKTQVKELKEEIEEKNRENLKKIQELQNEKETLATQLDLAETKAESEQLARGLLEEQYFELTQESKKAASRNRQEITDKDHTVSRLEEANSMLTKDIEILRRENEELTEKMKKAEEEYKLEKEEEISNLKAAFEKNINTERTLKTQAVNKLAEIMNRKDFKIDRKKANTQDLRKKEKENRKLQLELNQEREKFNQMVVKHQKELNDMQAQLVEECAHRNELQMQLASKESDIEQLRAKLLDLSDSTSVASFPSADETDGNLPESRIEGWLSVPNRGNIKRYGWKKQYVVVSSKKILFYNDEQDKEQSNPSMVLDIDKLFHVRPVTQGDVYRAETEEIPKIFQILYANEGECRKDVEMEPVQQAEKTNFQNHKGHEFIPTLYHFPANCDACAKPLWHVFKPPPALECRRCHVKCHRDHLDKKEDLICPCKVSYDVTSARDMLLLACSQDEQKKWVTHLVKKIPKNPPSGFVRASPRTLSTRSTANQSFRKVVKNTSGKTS
With `Cc1nc2cc3nc(-c4cccs4)cnc3cc2n1C`, the residual activity was 97.8%.
The same measure, in the same setting: with `O=C1NC(=O)C(c2cn(CCCO)c3ncccc23)=C1c1cnccn1` the figure was 90.2%; with `COc1cc2ncnc(N3CCN(C(=O)Nc4ccc(Oc5ccccc5)cc4)CC3)c2cc1OC`, 86%.

In another test the target is MET (human) (UniProt P08581). The test is described as above. The note with it: compound 0.5 µM; ATP 10 µM.
Take `Cc1nc2cc3nc(-c4cccs4)cnc3cc2n1C`: the residual activity came out at 111%.
On the same count and under the same terms, with `O=C1NC(=O)C(c2cn(CCCO)c3ncccc23)=C1c1cnccn1` the figure was 121%.
Same read-out and setting: with `COc1cc2ncnc(N3CCN(C(=O)Nc4ccc(Oc5ccccc5)cc4)CC3)c2cc1OC` the figure was 107%.

The target in a further test is PRKX (human) (UniProt P51817). Described as above. The conditions noted are these: compound 0.5 µM; ATP 10 µM.
As to `Cc1nc2cc3nc(-c4cccs4)cnc3cc2n1C`, the residual activity was determined as 106%.
Still for that read-out and setting: with `O=C1NC(=O)C(c2cn(CCCO)c3ncccc23)=C1c1cnccn1` the figure was 106%; with `COc1cc2ncnc(N3CCN(C(=O)Nc4ccc(Oc5ccccc5)cc4)CC3)c2cc1OC`, 99.3%.

In a further test the target is SRPK2 (human) (UniProt P78362). Described as above. The note with it: compound 0.5 µM; ATP 10 µM.
Sequence of SRPK2 (human) (P78362 whole entry, looked up): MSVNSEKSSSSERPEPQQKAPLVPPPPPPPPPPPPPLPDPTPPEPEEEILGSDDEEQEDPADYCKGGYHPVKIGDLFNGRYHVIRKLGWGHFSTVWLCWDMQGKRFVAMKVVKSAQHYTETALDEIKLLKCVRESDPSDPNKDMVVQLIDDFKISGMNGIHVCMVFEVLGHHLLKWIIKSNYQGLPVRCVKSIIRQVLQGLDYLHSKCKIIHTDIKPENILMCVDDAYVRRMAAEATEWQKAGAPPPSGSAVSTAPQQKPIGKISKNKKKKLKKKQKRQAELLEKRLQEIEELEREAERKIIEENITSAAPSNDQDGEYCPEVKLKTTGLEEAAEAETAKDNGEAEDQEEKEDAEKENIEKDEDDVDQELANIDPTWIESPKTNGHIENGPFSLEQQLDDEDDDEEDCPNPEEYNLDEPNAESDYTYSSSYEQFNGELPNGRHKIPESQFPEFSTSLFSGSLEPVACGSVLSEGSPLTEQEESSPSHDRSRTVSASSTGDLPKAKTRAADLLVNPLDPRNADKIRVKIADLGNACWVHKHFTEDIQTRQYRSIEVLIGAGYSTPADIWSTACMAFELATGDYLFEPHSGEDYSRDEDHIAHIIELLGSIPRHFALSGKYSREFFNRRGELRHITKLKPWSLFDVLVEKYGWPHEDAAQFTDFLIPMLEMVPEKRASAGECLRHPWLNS
As to `Cc1nc2cc3nc(-c4cccs4)cnc3cc2n1C`, the residual activity was found to be 104%.
Still for that read-out and setting: with `O=C1NC(=O)C(c2cn(CCCO)c3ncccc23)=C1c1cnccn1` the figure was 97.9%; with `COc1cc2ncnc(N3CCN(C(=O)Nc4ccc(Oc5ccccc5)cc4)CC3)c2cc1OC`, 89.1%.

Another test has as its target NTRK3 (human) (UniProt Q16288). The test is described as above. The conditions noted are these: compound 0.5 µM; ATP 10 µM.
Regarding `Cc1nc2cc3nc(-c4cccs4)cnc3cc2n1C`, the residual activity amounted to 59.9%.
On the same count and under the same terms, with `O=C1NC(=O)C(c2cn(CCCO)c3ncccc23)=C1c1cnccn1` the figure was 79.7%; with `COc1cc2ncnc(N3CCN(C(=O)Nc4ccc(Oc5ccccc5)cc4)CC3)c2cc1OC`, 89%.

The target of another test is NEK2 (human) (UniProt P51955). The test is described as above. The note with it: compound 0.5 µM; ATP 10 µM.
Take `Cc1nc2cc3nc(-c4cccs4)cnc3cc2n1C`: the residual activity was 97%.
On the same count and under the same terms, with `O=C1NC(=O)C(c2cn(CCCO)c3ncccc23)=C1c1cnccn1` the figure was 97.5%; with `COc1cc2ncnc(N3CCN(C(=O)Nc4ccc(Oc5ccccc5)cc4)CC3)c2cc1OC`, 81.3%.

Another test deals with CSNK1E (human) (UniProt P49674). The test is described as above. The note with it: compound 0.5 µM; ATP 10 µM.
For the compound `Cc1nc2cc3nc(-c4cccs4)cnc3cc2n1C`, the residual activity turned out to be 94.5%.
Still for that read-out and setting: with `O=C1NC(=O)C(c2cn(CCCO)c3ncccc23)=C1c1cnccn1` the figure was 93.9%; with `COc1cc2ncnc(N3CCN(C(=O)Nc4ccc(Oc5ccccc5)cc4)CC3)c2cc1OC`, 94.6%.

The next test has as its target FGFR4 (human) (UniProt P22455). Described as above. The note with it: compound 0.5 µM; ATP 10 µM.
For the compound `Cc1nc2cc3nc(-c4cccs4)cnc3cc2n1C`, the residual activity stood at 96.3%.
On the same count and under the same terms, with `O=C1NC(=O)C(c2cn(CCCO)c3ncccc23)=C1c1cnccn1` the figure was 91.5%.
As for `COc1cc2ncnc(N3CCN(C(=O)Nc4ccc(Oc5ccccc5)cc4)CC3)c2cc1OC`, the residual activity amounted to 99.7%.

The next test has as its target MST4 (human) (UniProt Q9P289). The test is described as above. The note with it: compound 0.5 µM; ATP 10 µM.
Consider `Cc1nc2cc3nc(-c4cccs4)cnc3cc2n1C`, for which the residual activity worked out at 99.3%.
Same read-out and setting: with `O=C1NC(=O)C(c2cn(CCCO)c3ncccc23)=C1c1cnccn1` the figure was 78.7%.
The same measure, in the same setting: with `COc1cc2ncnc(N3CCN(C(=O)Nc4ccc(Oc5ccccc5)cc4)CC3)c2cc1OC` the figure was 95.4%.

The next test deals with PAK7 (human) (UniProt Q9P286). The test is described as above. The conditions noted are these: compound 0.5 µM; ATP 10 µM.
In the case of `Cc1nc2cc3nc(-c4cccs4)cnc3cc2n1C`, the residual activity is 114%.
On the same count and under the same terms, with `O=C1NC(=O)C(c2cn(CCCO)c3ncccc23)=C1c1cnccn1` the figure was 88.2%; with `COc1cc2ncnc(N3CCN(C(=O)Nc4ccc(Oc5ccccc5)cc4)CC3)c2cc1OC`, 96.8%.

The next test has as its target RET (human) (UniProt P07949). The description is as above. The conditions noted are these: compound 0.5 µM; ATP 10 µM.
`Cc1nc2cc3nc(-c4cccs4)cnc3cc2n1C`: the residual activity worked out at 68.9%.
Take `O=C1NC(=O)C(c2cn(CCCO)c3ncccc23)=C1c1cnccn1`: the residual activity was 54.5%.
In the case of `COc1cc2ncnc(N3CCN(C(=O)Nc4ccc(Oc5ccccc5)cc4)CC3)c2cc1OC`, the residual activity came out at 104%.

For the next test, the target named is SRPK3 (human) (UniProt Q9UPE1). The test is described as above. The conditions noted are these: compound 0.5 µM; ATP 10 µM.
Consider `Cc1nc2cc3nc(-c4cccs4)cnc3cc2n1C`, for which the residual activity turned out to be 96.6%.
The same measure, in the same setting: with `O=C1NC(=O)C(c2cn(CCCO)c3ncccc23)=C1c1cnccn1` the figure was 91.2%; with `COc1cc2ncnc(N3CCN(C(=O)Nc4ccc(Oc5ccccc5)cc4)CC3)c2cc1OC`, 97.3%.

For another test, the target named is PIM1 (human) (UniProt P11309). The description is as above. The conditions noted are these: compound 0.5 µM; ATP 10 µM.
With `Cc1nc2cc3nc(-c4cccs4)cnc3cc2n1C`, the residual activity was 103%.
Still for that read-out and setting: with `O=C1NC(=O)C(c2cn(CCCO)c3ncccc23)=C1c1cnccn1` the figure was 43.9%; with `COc1cc2ncnc(N3CCN(C(=O)Nc4ccc(Oc5ccccc5)cc4)CC3)c2cc1OC`, 102%.
